Consider 13 compounds from US8513238B2 (Hoffmann-La Roche Inc., priority 2010, dated 2013).

SMILES strings stand for the structures. Counter-ions that a name gives are not always drawn.

The target of this assay is T1, human V1a receptor (Homo sapiens, UniProt P37288).
T1 construct: expressed in transfected cells; host or cells: HEK293 cells, transiently transfected; membranes prepared
T1 sequence (P37288 whole entry): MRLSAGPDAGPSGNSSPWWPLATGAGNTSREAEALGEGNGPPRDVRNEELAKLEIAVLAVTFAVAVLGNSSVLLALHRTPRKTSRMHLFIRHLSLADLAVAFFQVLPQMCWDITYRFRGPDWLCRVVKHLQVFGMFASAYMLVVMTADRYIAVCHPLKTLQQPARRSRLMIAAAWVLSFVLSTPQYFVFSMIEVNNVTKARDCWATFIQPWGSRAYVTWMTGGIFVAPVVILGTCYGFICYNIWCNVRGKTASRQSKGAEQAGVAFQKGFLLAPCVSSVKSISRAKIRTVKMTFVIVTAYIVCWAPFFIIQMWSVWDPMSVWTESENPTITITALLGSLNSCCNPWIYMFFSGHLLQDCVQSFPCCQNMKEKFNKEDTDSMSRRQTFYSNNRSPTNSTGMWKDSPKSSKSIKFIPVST
Briefly: human V1a receptor binding (3H-Vasopressin SPA, HEK293 membranes). The conditions noted are these: membranes of HEK293 cells transiently transfected with human V1a receptor, Ki by Cheng-Prussoff, read-out: pKi (hV1a) (converted). In short, it runs like this:
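HEK293 membranes transiently expressing cloned human V1a receptor, bound to yttrium silicate SPA beads in Tris/NaCl/KCl/CaCl2/MgCl2 buffer. Test compounds in 2% DMSO competed with 3H-vasopressin (4 nM solution added) for 1 h at room temperature; non-specific binding defined with cold vasopressin. IC50 from non-linear fit, Ki via Cheng-Prusoff.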
On to `CCc1cc([C@H]2CC[C@H](c3nnc4n3-c3ccc(Cl)cc3CN(C)C4)CC2)no1` [Example 53, trans-8-Chloro-1-[4-(5-ethyl-isoxazol-3-yl)-cyclohexyl]-5-methyl-5,6-dihydro-4H-2,3,5,10b-tetraaza-benzo[e]azulene], for which the Ki is 1.2 nM.
To `Cc1cnc([C@H]2CC[C@H](c3nnc4n3-c3ccc(Cl)cc3CN(C(=O)OC(C)(C)C)C4)CC2)o1` [Example 7, trans-8-Chloro-1-[4-(5-methyl-oxazol-2-yl)-cyclohexyl]-4H,6H-2,3,5,10b-tetraaza-benzo[e]azulene-5-carboxylic acid tert-butyl ester] belongs 0.603 nM.
`CCc1nc([C@H]2CC[C@H](c3nnc4n3-c3ccc(Cl)cc3CNC4)CC2)no1` [Example 87, trans-8-Chloro-1-[4-(5-ethyl-[1,2,4]oxadiazol-3-yl)-cyclohexyl]-5,6-dihydro-4H-2,3,5,10b-tetraaza-benzo[e]azulene hydrochloride]: the Ki is 145 nM.
Regarding `Cc1nc([C@H]2CC[C@H](c3nnc4n3-c3ccc(Cl)cc3CN(C)C4)CC2)oc1C` [Example 12, trans-8-Chloro-5-methyl-1-[4-(4,5-dimethyl-oxazol-2-yl)-cyclohexyl]-5,6-dihydro-4H-2,3,5,10b-tetraaza-benzo[e]azulene], the Ki was 0.851 nM.
Next, `Cc1nc([C@H]2CC[C@@H](c3nnc4n3-c3ccc(Cl)cc3CN(C(=O)OC(C)(C)C)C4)CC2)no1` [Example 82, cis-8-Chloro-1-[4-(5-methyl-[1,2,4]oxadiazol-3-yl)-cyclohexyl]-4H,6H-2,3,5,10b-tetraaza-benzo[e]azulene-5-carboxylic acid tert-butyl ester]: 14.8 nM; `Cc1nc([C@H]2CC[C@H](c3nnc4n3-c3ccc(Cl)cc3CN(C)C4)CC2)oc1Cl` [Example 100, trans-8-Chloro-1-[4-(5-chloro-4-methyl-oxazol-2-yl)-cyclohexyl]-5-methyl-5,6-dihydro-4H-2,3,5,10b-tetraaza-benzo[e]azulene]: 1.1 nM.
To `COCCN1Cc2cc(Cl)ccc2-n2c(nnc2[C@H]2CC[C@H](c3cc(C)on3)CC2)C1` [Example 29, trans-8-Chloro-5-(2-methoxy-ethyl)-1-[4-(5-methyl-isoxazol-3-yl)-cyclohexyl]-5,6-dihydro-4H-2,3,5,10b-tetraaza-benzo[e]azulene] belongs 1.58 nM; to `Cc1nc([C@H]2CC[C@H](c3nnc4n3-c3ccc(Cl)cc3CN(C(=O)OC(C)(C)C)C4)CC2)sc1C` [Example 104, trans-8-Chloro-1-[4-(4,5-dimethyl-thiazol-2-yl)-cyclohexyl]-4H,6H-2,3,5,10b-tetraaza-benzo[e]azulene-5-carboxylic acid tert-butyl ester], 0.794 nM.
To `CN1Cc2cc(Cl)ccc2-n2c(nnc2[C@H]2CC[C@H](c3noc4c3CCCC4)CC2)C1` [Example 56, trans-8-Chloro-5-methyl-1-[4-(4,5,6,7-tetrahydro-benzo[d]isoxazol-3-yl)-cyclohexyl]-5,6-dihydro-4H-2,3,5,10b-tetraaza-benzo[e]azulene] belongs 1.58 nM; to `Cc1cc([C@H]2CC[C@H](c3nnc4n3-c3ccc(F)cc3CN(C)C4)CC2)no1` [Example 38, trans-8-Fluoro-1-[4-(5-methyl-isoxazol-3-yl)-cyclohexyl]-5-methyl-5,6-dihydro-4H-2,3,5,10b-tetraaza-benzo[e]azulene], 18.6 nM; to `CCc1nc([C@H]2CC[C@@H](c3nnc4n3-c3ccc(Cl)cc3CN(C(=O)OC(C)(C)C)C4)CC2)no1` [Example 85, cis-8-Chloro-1-[4-(5-ethyl-[1,2,4]oxadiazol-3-yl)-cyclohexyl]-4H,6H-2,3,5,10b-tetraaza-benzo[e]azulene-5-carboxylic acid tert-butyl ester], 40.7 nM.
Regarding `CCc1nc([C@H]2CC[C@H](c3nnc4n3-c3ccc(Cl)cc3CN(C(=O)OC(C)(C)C)C4)CC2)no1` [Example 86, trans-8-Chloro-1-[4-(5-ethyl-[1,2,4]oxadiazol-3-yl)-cyclohexyl]-4H,6H-2,3,5,10b-tetraaza-benzo[e]azulene-5-carboxylic acid tert-butyl ester], the Ki was 3.09 nM.
Next, `CCc1cc([C@H]2CC[C@@H](c3nnc4n3-c3ccc(Cl)cc3CN(C)C4)CC2)no1` [Example 51, cis-8-Chloro-1-[4-(5-ethyl-isoxazol-3-yl)-cyclohexyl]-5-methyl-5,6-dihydro-4H-2,3,5,10b-tetraaza-benzo[e]azulene]: 15.5 nM.
